Experiment [1] deals with T1, Prostaglandin G/H synthase 2 (Ovis aries) (UniProt P79208).
T1 sequence (whole entry): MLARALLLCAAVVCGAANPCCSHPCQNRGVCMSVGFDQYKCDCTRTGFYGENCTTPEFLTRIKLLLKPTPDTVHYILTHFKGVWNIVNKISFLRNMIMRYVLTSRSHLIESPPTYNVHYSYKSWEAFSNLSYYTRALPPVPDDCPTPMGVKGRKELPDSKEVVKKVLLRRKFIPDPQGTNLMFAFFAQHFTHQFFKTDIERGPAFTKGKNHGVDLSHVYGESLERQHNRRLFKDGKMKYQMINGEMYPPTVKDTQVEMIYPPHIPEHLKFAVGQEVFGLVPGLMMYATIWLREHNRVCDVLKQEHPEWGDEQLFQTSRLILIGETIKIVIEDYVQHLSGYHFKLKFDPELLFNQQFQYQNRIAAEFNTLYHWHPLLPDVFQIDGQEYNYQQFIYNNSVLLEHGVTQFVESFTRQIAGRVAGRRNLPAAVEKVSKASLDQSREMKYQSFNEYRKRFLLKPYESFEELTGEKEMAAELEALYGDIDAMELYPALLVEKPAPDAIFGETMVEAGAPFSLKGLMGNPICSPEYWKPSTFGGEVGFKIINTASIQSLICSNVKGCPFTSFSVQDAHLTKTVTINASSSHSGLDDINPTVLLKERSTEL
Particulars: 30 uM.
Description: Inhibition of ovine COX2 using arachidonic acid as substrate at 30 uM preincubated for 10 mins before substrate addition measured after 5 mins by EIA

For experiment [2], the target named is T2, Prostaglandin G/H synthase 1 (Ovis aries) (UniProt P05979).
T2 sequence (whole entry): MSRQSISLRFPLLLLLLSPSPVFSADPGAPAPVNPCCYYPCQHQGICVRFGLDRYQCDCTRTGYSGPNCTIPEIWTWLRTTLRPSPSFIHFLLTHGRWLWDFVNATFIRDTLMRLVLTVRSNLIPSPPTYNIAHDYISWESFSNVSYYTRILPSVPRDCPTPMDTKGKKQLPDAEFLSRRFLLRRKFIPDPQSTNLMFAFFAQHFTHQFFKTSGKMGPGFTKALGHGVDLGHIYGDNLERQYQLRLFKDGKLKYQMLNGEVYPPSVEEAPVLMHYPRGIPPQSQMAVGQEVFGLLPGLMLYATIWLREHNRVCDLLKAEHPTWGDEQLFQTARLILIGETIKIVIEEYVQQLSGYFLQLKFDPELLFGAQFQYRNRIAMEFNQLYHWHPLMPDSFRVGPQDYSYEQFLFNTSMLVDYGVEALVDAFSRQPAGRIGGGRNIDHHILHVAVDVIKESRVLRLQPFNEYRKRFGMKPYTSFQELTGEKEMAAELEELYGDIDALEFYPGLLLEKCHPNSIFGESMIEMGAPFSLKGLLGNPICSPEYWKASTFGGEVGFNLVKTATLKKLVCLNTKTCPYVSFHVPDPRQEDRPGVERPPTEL
Briefly: Inhibition of ovine COX1 using arachidonic acid as substrate at 30 uM preincubated for 10 mins before substrate addition measured after 5 mins by EIA.

The target of experiment [3] is T3, Prostaglandin G/H synthase 1 (Ovis aries, UniProt P05979).
T3 sequence (P05979 whole entry): T2 sequence (whole entry)
The experiment is described as follows: Inhibition of ovine COX1 using arachidonic acid as substrate preincubated for 10 mins before substrate addition measured after 5 mins by EIA.

The subject of experiment [4] is Rattus norvegicus. Briefly: Antiinflammatory activity in Sprague-Dawley rat assessed as inhibition of carrageenan-induced paw edema at 150 umol/kg, po administered 1 hr before carrageenan challenge measured after 3 hrs. It is filed as functional. In general terms: Carrageenan injected into the paw causes an acute inflammation.
In experiment [5] the test system is Rattus norvegicus. Briefly: Antiinflammatory activity in Sprague-Dawley rat assessed as inhibition of carrageenan-induced paw edema at 150 umol/kg, po administered 1 hr before carrageenan challenge measured after 5 hrs. It is filed as functional.

Bounds are passed on as bounds.

Turning to `COc1cccc2c1C(=O)c1c(OC)cc(C)cc1C2=O`, the inhibition – broadly, the relative decrease from the control value, in per cent – is 62.1% in experiment [1] and 59.2% in experiment [2].
With `CC(=O)c1c(C)cc2cccc(OCc3cccc(Cl)c3)c2c1O`, in experiment [3], the IC50 (as a rule, the concentration at which inhibition is half-maximal) is 22.2 µM. In addition, the inhibition in experiment [1] is 82.1%; in experiment [2] it was 67.1%. Also, the results for the inhibition in vivo at 150 µmol/kg in the experiment with Rattus norvegicus [4] and with Rattus norvegicus [5] were 26.6% and 37%, respectively.
For `C=CCOc1cccc2c1C(=O)c1c(OCC=C)cc(C)cc1C2=O` the same measures were over 30 µM, 81.5%, 44.3%, 35.6% and 50.9%.
With `CCOc1cccc2c1C(=O)c1c(OCC)cc(C)cc1C2=O`, the inhibition in experiment [1] came out at 55.5%; in experiment [2], 43.7%.
`COCOc1cccc2cc(C)c(C(C)=O)c(O)c12` registered an IC50 in experiment [3] of 17.2 µM. In addition, the inhibition amounted to 75% in experiment [1] and 80.6% in experiment [2]. Also, the values for the inhibition in vivo at 150 µmol/kg with Rattus norvegicus [4] and in the experiment on Rattus norvegicus [5] were 36.4% and 55.8%, respectively.
On the same counts, the results for `Cc1cc(OCc2ccc(I)cc2)c2c(c1)C(=O)c1cccc(OCc3ccc(I)cc3)c1C2=O` are over 30 µM, 77.8%, 64.2%, 36.1% and 54.6%.
`CCCOc1cccc2c1C(=O)c1c(OCCC)cc(C)cc1C2=O`: the inhibition in experiment [1] stood at 58.7%; in experiment [2], 39.6%.
In experiment [3], `CC(=O)c1c(C)cc2cccc(OCc3ccccc3)c2c1O` registered an IC50 of 15.2 µM. Moreover, the inhibition is 89.9% in experiment [1] and 83.4% in experiment [2]. In addition, the inhibition in vivo (commonly the drop in the measured response relative to a control, in per cent) at 150 µmol/kg in the experiment with Rattus norvegicus [4] is 30.3%; with Rattus norvegicus [5] it was 54.2%.
On to `Cc1cc(O)c2c(c1)C(=O)c1cccc(O)c1C2=O` [CHRYSOPHANOL], for which the IC50 in experiment [3] was 46.2 µM. The inhibition amounted to 42.1% in experiment [1] and 29.4% in experiment [2].
Consider `CCOc1cccc2cc(C)c(C(C)=O)c(O)c12`, for which the inhibition in experiment [1] was determined as 54.2%; in experiment [2] it was 62.1%.
As for `COc1c(C(C)=O)c(C)cc2cccc(O)c12`, the inhibition in experiment [1] turned out to be 55.5%; in experiment [2], 65.5%.
Consider `CCCOc1cccc2cc(C)c(C(C)=O)c(O)c12`, for which the results for the inhibition in experiment [1] and in experiment [2] were 35.4% and 53.5%, respectively.
`CC(=O)c1c(C)cc2cccc(O)c2c1O` [NEPODIN] showed an IC50 in experiment [3] of 27.4 µM. Also, the inhibition worked out at 59.4% in experiment [1] and 68.2% in experiment [2].
As for `CCCCOc1cccc2cc(C)c(C(C)=O)c(O)c12`, the results for the inhibition in experiment [1] and in experiment [2] were 31.9% and 28.5%, respectively.
For `CCCCOc1c(C(C)=O)c(C)cc2cccc(O)c12` the same measures were 37.9% and 40.2%.
On the same counts, the results for `Cc1cc(OCc2ccccc2Br)c2c(c1)C(=O)c1cccc(OCc3ccccc3Br)c1C2=O` are 62% and 27.2%.
For `CCCOc1c(C(C)=O)c(C)cc2cccc(O)c12` the same measures were 47% and 51.4%.
For the compound `CC(=O)c1c(C)cc2cccc(OC(C)C)c2c1O`, the inhibition in experiment [1] is 62.6%; in experiment [2], 70.9%.
Take `Cc1cc(OCc2ccccc2)c2c(c1)C(=O)c1cccc(OCc3ccccc3)c1C2=O`: in experiment [3], the IC50 was over 30 µM. Moreover, the figures for the inhibition in experiment [1] and in experiment [2] were 76.5% and 41.4%, respectively. In addition, the values for the inhibition in vivo at 150 µmol/kg with Rattus norvegicus [4] and in the experiment with Rattus norvegicus [5] were 28.2% and 45.1%, respectively.
As for `COCOc1c(C(C)=O)c(C)cc2cccc(O)c12`, the inhibition in experiment [1] came out at 61.5%; in experiment [2], 67.1%.
As to `CC(=O)c1c(C)cc2cccc(O)c2c1OCc1ccccc1Br`, the inhibition in experiment [1] was 67.5%; in experiment [2], 37.2%.
On the same counts, the results for `CC(=O)c1c(C)cc2cccc(O)c2c1OC(C)C` are 54.9% and 62.2%.
For `CCCCOc1cccc2c1C(=O)c1c(OCCCC)cc(C)cc1C2=O` the same measures were 42% and 26%.
In the case of `CCOc1c(C(C)=O)c(C)cc2cccc(O)c12`, the inhibition in experiment [1] came to 42.9%; in experiment [2], 58.4%.
The compound `CC(=O)c1c(C)cc2cccc(OCc3ccccc3Br)c2c1O` yielded an IC50 in experiment [3] of 24.5 µM. Besides, the inhibition in experiment [1] was 83.1%; in experiment [2], 63.6%. Moreover, the inhibition in vivo at 150 µmol/kg in the experiment with Rattus norvegicus [4] was determined as 25.5%; with Rattus norvegicus [5], 46.5%.
Take `COc1cccc2cc(C)c(C(C)=O)c(O)c12`: the inhibition in experiment [1] amounted to 61.7%; in experiment [2], 69.8%.
Turning to `CC(C)Cc1ccc(C(C)C(=O)O)cc1` (stereo not drawn) [IBUPROFEN], the values for the inhibition in vivo at 150 µmol/kg in the experiment on Rattus norvegicus [4] and in the experiment with Rattus norvegicus [5] were 32.3% and 43.5%, respectively.
In the case of `CC(=O)c1c(C)cc2cccc(O)c2c1OCc1cccc(Cl)c1`, the inhibition in experiment [1] came out at 64.9%; in experiment [2] it was 34.9%.
`CC(=O)c1c(C)cc2cccc(O)c2c1OCc1ccccc1`: the inhibition was 68.2% in experiment [1] and 60.2% in experiment [2].
On the same counts, the results for `Cc1cc(OCc2cccc(Cl)c2)c2c(c1)C(=O)c1cccc(OCc3cccc(Cl)c3)c1C2=O` are 61% and 25.4%.

The values above are taken from ChEMBL document CHEMBL3259581 (Eur J Med Chem, 2014).
